In article PMC11748363, “Antimicrobial and Antiproliferative Properties of 2‐Phenyl‐N‐(Pyridin‐2‐yl)acetamides” (Chemical Biology & Drug Design, 2025):
Values after ≈ are worked out from the molar mass of the structure shown. Like-named read-outs stand apart in the source and are kept apart here.

Experiments:
[1] = tested on: Mycobacterium tuberculosis H37Ra; experiment: Antimycobacterial microdilution broth MIC (resazurin), Mtb H37Ra; assay type: cell-based; details: Mycobacterium tuberculosis, H37RA, read-out: MIC Mtb H37Ra
[2] = tested on: Trichophyton interdigitale CCM 8377, ATCC 9533; experiment: Antifungal microdilution broth MIC, TI; details: Trichophyton interdigitale
[3] = tested on: Enterococcus faecalis CCM 4224, ATCC 29212; experiment: Antibacterial microdilution broth MIC, EF; assay type: cell-based
[4] = tested on: Klebsiella pneumoniae CCM 4415, ATCC 10031; experiment: Antibacterial microdilution broth MIC, KP
[5] = tested on: Staphylococcus aureus subsp. aureus CCM 4750, ATCC 43300 (MRSA); experiment: Antibacterial microdilution broth MIC, MRSA; assay type: cell-based; details: Staphylococcus aureus
[6] = tested on: Mycolicibacterium aurum DSM 43999; experiment: Antimycobacterial microdilution broth MIC (resazurin), M. aurum; assay type: cell-based; details: DSM43999, read-out: MIC M. aurum
[7] = tested on: Pseudomonas aeruginosa CCM 3955, ATCC 27853; experiment: Antibacterial microdilution broth MIC, PA; assay type: cell-based
[8] = tested on: Mycolicibacterium smegmatis DSM 43465; experiment: Antimycobacterial microdilution broth MIC (resazurin), M. smegmatis; assay type: cell-based; details: DSM43465, read-out: MIC M. smegmatis
[9] = tested on: Candida parapsilosis CCM 8260, ATCC 22019; experiment: Antifungal microdilution broth MIC, CP; details: Lodderomyces parapsilosis
[10] = tested on: Staphylococcus aureus CCM 4223, ATCC 29213; experiment: Antibacterial microdilution broth MIC, SA; assay type: cell-based; details: Staphylococcus aureus
[11] = tested on: Candida albicans CCM 8320, ATCC 24433; experiment: Antifungal microdilution broth MIC, CA
[12] = tested on: Candida tropicalis CCM 8264, ATCC 750; experiment: Antifungal microdilution broth MIC, CT
[13] = tested on: Aspergillus flavus CCM 8363; experiment: Antifungal microdilution broth MIC, AFla
[14] = tested on: Lichtheimia corymbifera CCM 8077; experiment: Antifungal microdilution broth MIC, LC
[15] = tested on: Acinetobacter baumannii DSM 30007, ATCC 19606; experiment: Antibacterial microdilution broth MIC, ACI; assay type: cell-based
HepG2 cell line = experiment: Cytotoxicity CellTiter 96, HepG2; assay type: cell-based, human; details: Homo sapiens, HepG2, 24 h, 24 h incubation; ^c compound precipitated in the testing medium; ^d over the limit of tested concentrations
[16] = tested on: Aspergillus fumigatus ATCC 204305; experiment: Antifungal microdilution broth MIC, AF
[17] = tested on: Staphylococcus epidermidis CCM 4418, ATCC 12228; experiment: Antibacterial microdilution broth MIC, SE; assay type: cell-based
[18] = tested on: Escherichia coli CCM 3954, ATCC 25922; experiment: Antibacterial microdilution broth MIC, EC; assay type: cell-based
[19] = tested on: Candida krusei CCM 8271, ATCC 6258; experiment: Antifungal microdilution broth MIC, CK; details: Pichia kudriavzevii
[20] = CCM8363, 24 h, read-out: MIC AFla 24h
[21] = CCM8363, 48 h, read-out: MIC AFla 48h
[22] = CCM8077, 24 h, read-out: MIC LC 24h
[23] = CCM8077, 48 h, read-out: MIC LC 48h
[24] = ATCC204305, 24 h, read-out: MIC AF 24h
[25] = ATCC204305, 48 h, read-out: MIC AF 48h

In the case of `COc1ccccc1CC(=O)Nc1ccc(Cl)cn1` [Compound 5], the MIC ([1]; Calculated from MIC (μg/mL)) is reported as > 1800 µM, the MIC [1] is reported as > 500 µg/mL and the MIC ([2]; 72 h, read-out: MIC TI 72h) is reported as 500 µM (≈ 138 µg/mL). For the same compound, the MIC ([2]; 120 h, read-out: MIC TI 120h) was 500 µM (≈ 138 µg/mL), the MIC ([3]; 24 h, read-out: MIC EF 24h) was > 500 µM and the MIC ([3]; 48 h, read-out: MIC EF 48h) was > 500 µM. For the same compound, the “MIC KP 24h” value [4] was > 500 µM, the “MIC KP 48h” value [4] was > 500 µM and the MIC ([5]; 24 h, read-out: MIC MRSA 24h) was > 500 µM. The MIC ([5]; 48 h, read-out: MIC MRSA 48h) was > 500 µM, the MIC [6] was > 500 µg/mL and the MIC ([7]; 24 h, read-out: MIC PA 24h) was > 500 µM. The MIC ([7]; 48 h, read-out: MIC PA 48h) was > 500 µM, the MIC [8] was > 500 µg/mL and the MIC ([9]; 24 h, read-out: MIC CP 24h) was > 500 µM. The MIC ([9]; 48 h, read-out: MIC CP 48h) was > 500 µM, the MIC ([10]; 24 h, read-out: MIC SA 24h) was > 500 µM and the MIC ([10]; 48 h, read-out: MIC SA 48h) was > 500 µM. For the same compound, the MIC ([11]; 24 h, read-out: MIC CA 24h) was > 500 µM, the MIC ([11]; 48 h, read-out: MIC CA 48h) was > 500 µM and the MIC ([12]; 24 h, read-out: MIC CT 24h) was > 500 µM. For the same compound, the MIC ([12]; 48 h, read-out: MIC CT 48h) was > 500 µM, the MIC [13, 20] was > 500 µM and the MIC [13, 21] was > 500 µM. For the same compound, the MIC [14, 22] was > 500 µM, the MIC [14, 23] was > 500 µM and the MIC ([15]; 24 h, read-out: MIC ACI 24h) was > 500 µM. For the same compound, the MIC ([15]; 48 h, read-out: MIC ACI 48h) was > 500 µM, the IC50 (HepG2 cell line) was > 250 µM and the MIC [16, 24] was > 500 µM. The MIC [16, 25] was > 500 µM, the MIC ([17]; 24 h, read-out: MIC SE 24h) was > 500 µM and the MIC ([17]; 48 h, read-out: MIC SE 48h) was > 500 µM. The MIC ([18]; 24 h, read-out: MIC EC 24h) was > 500 µM, the MIC ([18]; 48 h, read-out: MIC EC 48h) was > 500 µM and the MIC ([19]; 24 h, read-out: MIC CK 24h) was > 500 µM. For the same compound, the MIC ([19]; 48 h, read-out: MIC CK 48h) was > 500 µM.

For `COc1ccccc1CC(=O)Nc1cccc(Cl)n1` [Compound 6], the MIC ([1]; Calculated from MIC (μg/mL)) was > 1800 µM, the MIC [1] was > 500 µg/mL and the MIC ([2]; 72 h, read-out: MIC TI 72h) was > 500 µM. The MIC ([2]; 120 h, read-out: MIC TI 120h) was > 500 µM, the MIC ([3]; 24 h, read-out: MIC EF 24h) was > 500 µM and the MIC ([3]; 48 h, read-out: MIC EF 48h) was > 500 µM. The “MIC KP 24h” value [4] was > 500 µM, the “MIC KP 48h” value [4] was > 500 µM and the MIC ([5]; 24 h, read-out: MIC MRSA 24h) was > 500 µM. For the same compound, the MIC ([5]; 48 h, read-out: MIC MRSA 48h) was > 500 µM, the MIC [6] was > 500 µg/mL and the MIC ([7]; 24 h, read-out: MIC PA 24h) was > 500 µM. The MIC ([7]; 48 h, read-out: MIC PA 48h) was > 500 µM, the MIC [8] was > 500 µg/mL and the MIC ([9]; 24 h, read-out: MIC CP 24h) was > 500 µM. For the same compound, the MIC ([9]; 48 h, read-out: MIC CP 48h) was > 500 µM, the MIC ([10]; 24 h, read-out: MIC SA 24h) was > 500 µM and the MIC ([10]; 48 h, read-out: MIC SA 48h) was > 500 µM. The MIC ([11]; 24 h, read-out: MIC CA 24h) was > 500 µM, the MIC ([11]; 48 h, read-out: MIC CA 48h) was > 500 µM and the MIC ([12]; 24 h, read-out: MIC CT 24h) was > 500 µM. For the same compound, the MIC ([12]; 48 h, read-out: MIC CT 48h) was > 500 µM, the MIC [13, 20] was > 500 µM and the MIC [13, 21] was > 500 µM. The MIC [14, 22] was > 500 µM, the MIC [14, 23] was > 500 µM and the MIC ([15]; 24 h, read-out: MIC ACI 24h) was > 500 µM. For the same compound, the MIC ([15]; 48 h, read-out: MIC ACI 48h) was > 500 µM, the IC50 (HepG2 cell line) was > 500 µM and the MIC [16, 24] was > 500 µM. For the same compound, the MIC [16, 25] was > 500 µM, the MIC ([17]; 24 h, read-out: MIC SE 24h) was > 500 µM and the MIC ([17]; 48 h, read-out: MIC SE 48h) was > 500 µM. The MIC ([18]; 24 h, read-out: MIC EC 24h) was > 500 µM, the MIC ([18]; 48 h, read-out: MIC EC 48h) was > 500 µM and the MIC ([19]; 24 h, read-out: MIC CK 24h) was > 500 µM. The MIC ([19]; 48 h, read-out: MIC CK 48h) was > 500 µM.
